The values that follow come from patent US20210238225A1, “PEPTIDOMIMETIC INHIBITORS OF THE PEPTIDYL-PROLYL CIS/TRANS ISOMERASE (PIN1)” (DANA-FARBER CANCER INSTITUTE, INC., priority 2018, published 2021).

The Ki is the equilibrium dissociation constant of an inhibitor or competing ligand from its target.

Like-named read-outs stand apart in the source and are kept apart here. Non-standard residues stand in square brackets, D forms with d. Residues, ends and D or L forms follow the SMILES beside them. *: point of attachment. Phe(F5) = N[C@@H](Cc1c(F)c(F)c(F)c(F)c1F)C(=O)O; Phe(3,5-F2) = N[C@@H](Cc1cc(F)cc(F)c1)C(=O)O; Ala(4-thiazolyl) = N[C@@H](Cc1cscn1)C(=O)O; Phe(2-Br) = N[C@@H](Cc1ccccc1Br)C(=O)O; Phe(4-F) = N[C@@H](Cc1ccc(F)cc1)C(=O)O; Met(O2) = CS(=O)(=O)CC[C@H](N)C(=O)O; Bta = N[C@@H](Cc1csc2ccccc12)C(=O)O; NH(4-Me-benzyl) = Cc1ccc(CN*)cc1; 3Thi = N[C@@H](Cc1ccsc1)C(=O)O; Cit = NC(=O)NCCC[C@H](N)C(=O)O; X7 = c1ccc(-c2ccc(N*)cc2)cc1; Pip = O=C(O)[C@@H]1CCCCN1; βNA = c1ccc2cc(N*)ccc2c1; NHtBu = CC(C)(C)N*; X4 = CN(c1ccccc1)*; ClAc = O=C(CCl)*; X1 = O=C(C1CO1)*

For this assay, the target named is Pin1 (GST-Pin1) (Homo sapiens, UniProt Q13526). Nature of the assay: Fluorescence polarization (FP) assay, binding to Pin1. Conditions: competition with fluorescein-labeled peptide probe, 12 hours pre-incubation at 4° C., Kenakin Ki equation. On the technique in general: In fluorescence polarisation assays a small probe gives low polarisation when free and higher when bound to something large.
Sequence of Pin1 (GST-Pin1) (Q13526 whole entry): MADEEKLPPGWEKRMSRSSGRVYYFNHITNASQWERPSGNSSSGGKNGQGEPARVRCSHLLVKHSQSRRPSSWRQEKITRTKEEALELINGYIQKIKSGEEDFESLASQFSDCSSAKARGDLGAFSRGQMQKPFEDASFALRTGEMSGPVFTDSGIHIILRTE

Consider `NC(=O)NCCC[C@H](NC(=O)[C@H](Cc1c[nH]c2ccccc12)NC(=O)[C@@H]1CCCCN1C(=O)[C@H](CCC(=O)O)NC(=O)CCl)C(=O)Nc1ccc2ccccc2c1` [Compound 11-10, (S)-5-((S)-2-(((S)-3-(1H-Indol-3-yl)-1-(((S)-1-(naphthalen-2-ylamino)-1-oxo-5-ureidopentan-2-yl)amino)-1-oxopropan-2-yl)carbamoyl)piperidin-1-yl)-4-(2-chloroacetamido)-5-oxopentanoic acid] (ClAc-E[Pip]W[Cit]-βNA), for which the Ki (read-out: Ki, μM (FP Assay)) turned out to be 0.11 µM. On the same count and under the same terms, the result for `Cc1ccc(CNC(=O)[C@H](CCCNC(N)=O)NC(=O)[C@H](Cc2c[nH]c3ccccc23)NC(=O)[C@@H]2CCCCN2C(=O)[C@H](CCS(C)(=O)=O)NC(=O)CCl)cc1` [Compound 11-11, (S)—N—((S)-3-(1H-Indol-3-yl)-1-(((S)-1-((4-methylbenzyl)amino)-1-oxo-5-ureidopentan-2-yl)amino)-1-oxopropan-2-yl)-1-((S)-2-(2-chloroacetamido)-4-(methylsulfonyl)butanoyl)piperidine-2-carboxamide] (ClAc-[Met(O2)][Pip]W[Cit]-{NH(4-Me-benzyl)}) reads 0.17 µM.

Turning to `COC(=O)CC[C@H](NC(=O)C1CO1)C(=O)N1CCCC[C@H]1C(=O)N[C@@H](Cc1c[nH]c2ccccc12)C(=O)N[C@@H](CCCNC(N)=O)C(=O)NCc1ccc(C)cc1` (stereo partly drawn) [Compound 11-12, Methyl (4S)-5-((S)-2-(((S)-3-(1H-indol-3-yl)-1-(((S)-1-((4-methylbenzyl)amino)-1-oxo-5-ureido-pentan-2-yl)amino)-1-oxopropan-2-yl)carbamoyl)piperidin-1-yl)-4-(oxirane-2-carboxamido)-5-oxopentanoate] (X1-E(OMe)[Pip]W[Cit]-{NH(4-Me-benzyl)}), the Ki (read-out: Ki, μM (FP Assay)) was over 10 µM. Turning to `COC(=O)CC[C@H](NC(=O)CCl)C(=O)N1CCCC[C@H]1C(=O)N[C@@H](Cc1c[nH]c2ccccc12)C(=O)N[C@@H](CCCNC(N)=O)C(=O)N(C)c1ccccc1` [Compound 11-15, Methyl (S)-5-((S)-2-(((S)-3-(1H-indol-3-yl)-1-(((S)-1-(methyl(phenyl)amino)-1-oxo-5-ureidopentan-2-yl)amino)-1-oxopropan-2-yl)carbamoyl)piperidin-1-yl)-4-(2-chloroacetamido)-5-oxopentanoate] (ClAc-E(OMe)[Pip]W[Cit]-X4), affinity (Ki, μM (FP Assay)) was put at a Ki of 0.15 µM.

The compound `COC(=O)CC[C@@H](NC(=O)CCl)C(=O)N1CCCC[C@H]1C(=O)N[C@@H](Cc1c[nH]c2ccccc12)C(=O)N[C@@H](Cc1ccc(F)cc1)C(=O)NCc1ccc(C)cc1` [Compound 11-16, Methyl (R)-4-(2-chloroacetamido)-5-((S)-2-(((S)-1-(((S)-3-(4-fluorophenyl)-1-((4-methyl-benzyl)amino)-1-oxopropan-2-yl)amino)-3-(1H-indol-3-yl)-1-oxopropan-2-yl)carbamoyl)-piperidin-1-yl)-5-oxopentanoate] (ClAc-[dE](OMe)[Pip]W[Phe(4-F)]-{NH(4-Me-benzyl)}) displayed a Ki (Ki, μM (FP Assay)) of over 10 µM.

Consider `COC(=O)CC[C@H](NC(=O)CCl)C(=O)N1CCCC[C@H]1C(=O)N[C@@H](Cc1c[nH]c2ccccc12)C(=O)N[C@@H](CCCNC(N)=O)C(=O)Nc1ccc(-c2ccccc2)cc1` [Compound 11-17, Methyl (S)-5-((S)-2-(((S)-1-(((S)-1-([1,1′-biphenyl]-4-ylamino)-1-oxo-5-ureidopentan-2-yl)amino)-3-(1H-indol-3-yl)-1-oxopropan-2-yl)carbamoyl)piperidin-1-yl)-4-(2-chloroacetamido)-5-oxopentanoate] (ClAc-E(OMe)[Pip]W[Cit]-X7), for which, under “Ki, μM (FP Assay)”, the Ki was over 10 µM. `COC(=O)CC[C@H](NC(=O)CCl)C(=O)N1CCCC[C@H]1C(=O)N[C@@H](Cc1c[nH]c2ccccc12)C(=O)N[C@@H](Cc1ccc(F)cc1)C(=O)N(C)c1ccccc1` [Compound 11-20, Methyl (S)-4-(2-chloroacetamido)-5-((S)-2-(((S)-1-(((S)-3-(4-fluorophenyl)-1-(methyl-(phenyl)amino)-1-oxopropan-2-yl)amino)-3-(1H-indol-3-yl)-1-oxopropan-2-yl)carbamoyl)-piperidin-1-yl)-5-oxopentanoate] (ClAc-E(OMe)[Pip]W[Phe(4-F)]-X4) registered a Ki (Ki, μM (FP Assay)) of 0.223 µM. In turn, `COC(=O)CC[C@H](NC(=O)CCl)C(=O)N1CCCC[C@H]1C(=O)N[C@@H](Cc1csc2ccccc12)C(=O)N[C@@H](CCCNC(N)=O)C(=O)NCc1ccc(C)cc1` [Compound 11-21, Methyl (S)-5-((S)-2-(((S)-3-(benzo[&]thiophen-3-yl)-1-(((S)-1-((4-methylbenzyl)amino)-1-oxo-5-ureidopentan-2-yl)amino)-1-oxopropan-2-yl)carbamoyl)piperidin-1-yl)-4-(2-chloroacetamido)-5-oxopentanoate] (ClAc-E(OMe)[Pip][Bta][Cit]-{NH(4-Me-benzyl)}) came in with an inhibitory constant (Ki) (Ki, μM (FP Assay)) of 0.015 µM. On the same count and under the same terms, the result for `COC(=O)CC[C@H](NC(=O)CCl)C(=O)N1CCCC[C@H]1C(=O)N[C@@H](Cc1csc2ccccc12)C(=O)N[C@@H](Cc1ccc(F)cc1)C(=O)NCc1ccc(C)cc1` [Compound 11-22, Methyl (S)-5-((S)-2-(((S)-3-(benzo[b]thiophen-3-yl)-1-(((S)-3-(4-fluorophenyl)-1-((4-methylbenzyl)amino)-1-oxopropan-2-yl)amino)-1-oxopropan-2-yl)carbamoyl)piperidin-1-yl)-4-(2-chloroacetamido)-5-oxopentanoate] (ClAc-E(OMe)[Pip][Bta][Phe(4-F)]-{NH(4-Me-benzyl)}) reads over 10 µM; that for `COC(=O)CC[C@H](NC(=O)CCl)C(=O)N1CCCC[C@H]1C(=O)N[C@@H](Cc1c[nH]c2ccccc12)C(=O)N[C@@H](Cc1cc(F)cc(F)c1)C(=O)NCc1ccc(C)cc1` [Compound 11-24, Methyl (S)-4-(2-chloroacetamido)-5-((S)-2-(((S)-1-(((S)-3-(3,5-difluorophenyl)-1-((4-methyl-benzyl)amino)-1-oxopropan-2-yl)amino)-3-(1H-indol-3-yl)-1-oxopropan-2-yl)carbamoyl)piperidin-1-yl)-5-oxopentanoate] (ClAc-E(OMe)[Pip]W[Phe(3,5-F2)]-{NH(4-Me-benzyl)}), over 10 µM.

Regarding `COC(=O)CC[C@H](NC(=O)CCl)C(=O)N1CCCC[C@H]1C(=O)N[C@@H](Cc1c[nH]c2ccccc12)C(=O)N[C@@H](Cc1c(F)c(F)c(F)c(F)c1F)C(=O)NCc1ccc(C)cc1` [Compound 11-25, Methyl (S)-5-((S)-2-(((S)-3-(1H-indol-3-yl)-1-(((S)-1-((4-methylbenzyl)amino)-1-oxo-3-(perfluoro-phenyl)propan-2-yl)amino)-1-oxopropan-2-yl)carbamoyl)piperidin-1-yl)-4-(2-chloroacetamido)-5-oxopentanoate] (ClAc-E(OMe)[Pip]W[Phe(F5)]-{NH(4-Me-benzyl)}), the Ki (Ki, μM (FP Assay)) was over 10 µM. Where the note is “Ki, μM (FP Assay)”, `COC(=O)CC[C@H](NC(=O)CCl)C(=O)N1CCCC[C@H]1C(=O)N[C@@H](Cc1c[nH]c2ccccc12)C(=O)N[C@@H](Cc1ccccc1Br)C(=O)NCc1ccc(C)cc1` [Compound 11-27, Methyl (S)-5-((S)-2-(((S)-1-(((S)-3-(2-bromophenyl)-1-((4-methylbenzyl)amino)-1-oxopropan-2-yl)amino)-3-(1H-indol-3-yl)-1-oxopropan-2-yl)carbamoyl)piperidin-1-yl)-4-(2-chloroacetamido)-5-oxopentanoate] (ClAc-E(OMe)[Pip]W[Phe(2-Br)]-{NH(4-Me-benzyl)}) gave a Ki of over 10 µM. `COC(=O)CC[C@H](NC(=O)CCl)C(=O)N1CCCC[C@H]1C(=O)N[C@@H](Cc1c[nH]c2ccccc12)C(=O)N[C@@H](Cc1ccsc1)C(=O)NCc1ccc(C)cc1` [Compound 11-29, Methyl (S)-5-((S)-2-(((S)-3-(1H-indol-3-yl)-1-(((S)-1-((4-methylbenzyl)amino)-1-oxo-3-(thiophen-3-yl)propan-2-yl)amino)-1-oxopropan-2-yl)carbamoyl)piperidin-1-yl)-4-(2-chloroacetamido)-5-oxopentanoate] (ClAc-E(OMe)[Pip]W[3Thi]-{NH(4-Me-benzyl)}) displayed a Ki (Ki, μM (FP Assay)) of 1.01 µM. As for `COC(=O)CC[C@H](NC(C)=O)C(=O)N1CCCC[C@H]1C(=O)N[C@@H](Cc1c[nH]c2ccccc12)C(=O)N[C@@H](Cc1ccc(F)cc1)C(=O)NCc1ccc(C)cc1` [Compound 11-30, Methyl (S)-4-acetamido-5-((S)-2-(((S)-1-(((S)-3-(4-fluorophenyl)-1-((4-methylbenzyl)-amino)-1-oxopropan-2-yl)amino)-3-(1H-indol-3-yl)-1-oxopropan-2-yl)carbamoyl)piperidin-1-yl)-5-oxopentanoate] (Ac-E(OMe)[Pip]W[Phe(4-F)]-{NH(4-Me-benzyl)}), the inhibitory constant (Ki) (read-out: Ki, μM (FP Assay)) was over 10 µM. The same measure, in the same setting: then `CC(C)(C)NC(=O)[C@H](CCCNC(N)=O)NC(=O)[C@H](Cc1c[nH]c2ccccc12)NC(=O)[C@@H]1CCCCN1C(=O)[C@H](Cc1ccccc1)NC(=O)CCl` [Compound 11-31, (S)—N—((S)-1-(((S)-1-(tert-Butylamino)-1-oxo-5-ureidopentan-2-yl)amino)-3-(1H-indol-3-yl)-1-oxopropan-2-yl)-1-((2-chloroacetyl)-L-phenylalanyl)piperidine-2-carboxamide] (ClAc-F[Pip]W[Cit]-NHtBu), with 0.023 µM; and `Cc1ccc(CNC(=O)[C@H](Cc2cscn2)NC(=O)[C@H](Cc2c[nH]c3ccccc23)NC(=O)[C@@H]2CCCCN2C(=O)[C@H](Cc2ccccc2)NC(=O)CCl)cc1` [Compound 11-32, (S)—N—((S)-3-(1H-Indol-3-yl)-1-(((S)-1-((4-methylbenzyl)amino)-1-oxo-3-(thiazol-4-yl)propan-2-yl)amino)-1-oxopropan-2-yl)-1-((2-chloroacetyl)-L-phenylalanyl)piperidine-2-carboxamide] (ClAc-F[Pip]W[Ala(4-thiazolyl)]-{NH(4-Me-benzyl)}), with 0.121 µM; and `Cc1ccc(CNC(=O)[C@H](CCCNC(N)=O)NC(=O)[C@H](Cc2csc3ccccc23)NC(=O)[C@@H]2CCCCN2C(=O)[C@H](Cc2ccccc2)NC(=O)CCl)cc1` [Compound 11-33, (S)—N—((S)-3-(benzo[6]thiophen-3-yl)-1-(((S)-1-((4-methylbenzyl)amino)-1-oxo-5-ureidopentan-2-yl)amino)-1-oxopropan-2-yl)-1-((2-chloroacetyl)-L-phenylalanyl)-piperidine-2-carboxamide] (ClAc-F[Pip][Bta][Cit]-{NH(4-Me-benzyl)}), with 0.028 µM.
